# Where a name gives a salt, the structure may show the parent alone. Read-outs that look alike come from different tables or passages of the source.
# How the values were obtained:
# [1] = molecular target: BIR3 domain of human XIAP (residues 252-350) (Homo sapiens (Human), UniProt P98170); assay: XIAP in vitro competitive displacement binding assay (fluorescence polarization); details: for IC50: read-out: IC50 or PI Xiap: IC50
# [2] = molecular target: BIR3 domain of human cIAP-1 (residues 267-363) (Homo sapiens (Human), UniProt Q13490); assay: cIAP-1 in vitro competitive displacement binding assay (fluorescence polarization; Probe A AVPIK(5&6FAM)-amide or Probe B AbuRPFK(5&6FAM)-amide)
# [3] = Probe B AbuRPFK(5&6FAM)-amide, read-out: IC50 or PI cIAP1: IC50
# [4] = read-out: IC50 or PI cIAP1: IC50
# [5] = Probe A AVPIK(5&6FAM)-amide, read-out: IC50 or PI cIAP1: IC50
Structure (SMILES),IC50 [1] [µM],"IC50 [2, 3] [nM]",other results
"C[C@@H]1CN(CC(=O)N2CC(C)(C)c3c(Cl)cc(Cl)cc32)CCN1 [Example 46, 1-(4,6-Dichloro-3,3-dimethyl-2,3-dihydro-indol-1-yl)-2-((R)-3-methyl-piperazin-1-yl)-ethanone hydrochloride salt]",9,4800,
"COC[C@H]1CN[C@H](C)CN1CC(=O)N1CC(C)(C)c2cc(OC)ncc21 [Example 65, 1-(5-Methoxy-3,3-dimethyl-2,3-dihydro-pyrrolo[2,3-c]pyridin-1-yl)-2-((2R,5R)-2-methoxymethyl-5-methyl-piperazin-1-yl)-ethanone hydrochloride salt]",6,1300,
"CCS(=O)(=O)c1cc2c(cc1F)C(C)(C)CN2C(=O)CN1CCN[C@H](C)C1 [Example 51, 1-(6-Ethanesulfonyl-5-fluoro-3,3-dimethyl-2,3-dihydro-indol-1-yl)-2-((R)-3-methyl-piperazin-1-yl)-ethanone dihydrochloride salt]",1.1,,"IC50 [2, 4]: 3200 nM"
"C[C@@H]1CN([C@@H](C)C(=O)N2CC(C)(C)c3ccc(C#N)cc32)CCN1 [Example 196, 3,3-Dimethyl-1-[(2S)-2-[(3R)-3-methylpiperazin-1-yl]propanoyl]-2,3-dihydro-1H-indole-6-carbonitrile hydrochloride]",5.6,31000,
"CNC(=O)c1ccc2c(c1)N(C(=O)CN1CCN[C@H](C)C1)CC2 [Example 16, 1-[2-((R)-3-Methyl-piperazin-1-yl)-acetyl]-2,3-dihydro-1H-indole-6-carboxylic acid methylamide]",,,"inhibition at 77 µM ([1]; 1 h, @ 77 μM, read-out: IC50 or PI Xiap: PI): 42%; inhibition at 250 µM ([2]; 3 h, Probe A, @ 250 μM, read-out: IC50 or PI cIAP1: PI): 56%"
"COC(=O)c1ccc2c(c1)N(C(=O)CN1CCN[C@H](C)C1)CC2 [Example 15, 1-[2-((R)-3-Methyl-piperazin-1-yl)-acetyl]-2,3-dihydro-1H-indole-6-carboxylic acid methyl ester]",19,,"IC50 [2]: < 10000 nM; IC50 [2, 4]: 6800 nM"
"C[C@@H]1CN(CC(=O)N2CCc3cnc(-c4cc(Cl)ccc4F)cc32)CCN1 [Example 38, 1-[6-(5-Chloro-2-fluoro-phenyl)-2,3-dihydro-pyrrolo[3,2-c]pyridin-1-yl]-2-((R)-3-methyl-piperazin-1-yl)-ethanone hydrochloride salt]",5.5,,"IC50 [2]: < 10000 nM; IC50 [2, 5]: 2100 nM"
"C[C@@H]1CN(CC(=O)N2CCc3cccnc32)CCN1 [Example 36, 1-(2,3-Dihydro-pyrrolo[2,3-b]pyridin-1-yl)-2-((R)-3-methyl-piperazin-1-yl)-ethanone dihydrochloride salt]",240,,"inhibition at 500 µM ([2]; 3 h, read-out: IC50 or PI cIAP1: PI): 56%"
"CC(=O)N1CCC2(CC1)CN(C(=O)CN1CCN[C@H](C)C1)c1cc(Cl)ccc12 [Example 31, 1-{1′-Acetyl-6-chloro-1,2-dihydrospiro[indole-3,4′-piperidine]-1-yl}-2-[(3R)-3-methylpiperazin-1-yl]ethan-1-one hydrochloride salt]",,,"inhibition at 49 µM ([1]; 1 h, @ 49 μM, read-out: IC50 or PI Xiap: PI): 51%; inhibition at 49 µM ([2]; 3 h, Probe A, @ 49 μM, read-out: IC50 or PI cIAP1: PI): 62%"
"COC[C@H]1CN[C@H](C)CN1CC(=O)N1CC(C)(C)c2cc(=O)n(CC(C)C)cc21 [Example 73, 6-Isobutyl-1-[2-((2R,5R)-2-methoxy-methyl-5-methyl-piperazin-1-yl)-acetyl]-3,3-dimethyl-1,2,3,6-tetrahydro-pyrrolo[2,3-c]pyridin-5-one hydrochloride salt]",,,"inhibition at 3 µM ([1]; 1 h, @ 3 μM, read-out: IC50 or PI Xiap: PI): 46%; inhibition at 1 µM ([2]; 3 h, Probe B, @ 1 μM, read-out: IC50 or PI cIAP1: PI): 60%"
"COC[C@H]1CN[C@H](C)CN1CC(=O)N1CC(C)(C)c2cnc(Nc3ccccc3)cc21 [Example 81, 1-(3,3-Dimethyl-6-phenylamino-2,3-dihydro-pyrrolo[3,2-c]pyridin-1-yl)-2-((2R,5R)-2-methoxymethyl-5-methyl-piperazin-1-yl)-ethanone hydrochloride salt]",,,"inhibition at 300 µM ([1]; 1 h, @ 300 μM, read-out: IC50 or PI Xiap: PI): 51%; inhibition at 100 µM ([2]; 3 h, Probe B, @ 100 μM, read-out: IC50 or PI cIAP1: PI): 36%"
"C[C@@H]1CN(CC(=O)N2CC(C)(C)c3cc(F)c(S(=O)(=O)C4CC4)cc32)CCN1 [Example 57, 1-(6-Cyclopropane-sulfonyl-5-fluoro-3,3-dimethyl-2,3-dihydro-indol-1-yl)-2-((R)-3-methyl-piperazin-1-yl)-ethanone dihydrochloride salt]",0.81,,"IC50 [2, 4]: 2000 nM"
"C[C@@H]1CN(CC(=O)N2CCc3cc(F)c(-c4ccccc4)cc32)CCN1 [Example 24, 1-(5-Fluoro-6-phenyl-2,3-dihydro-indol-1-yl)-2-((R)-3-methyl-piperazin-1-yl)-ethanone hydrochloride salt]",7.4,,"IC50 [2]: < 10000 nM; IC50 [2, 5]: 2000 nM"
"CC(C)S(=O)(=O)c1cc2c(cc1F)C(C)(C)CN2C(=O)CN1CCN[C@H](C)C1 [Example 52, 1-[5-Fluoro-3,3-dimethyl-6-(propane-2-sulfonyl)-2,3-dihydro-indol-1-yl]-2-((R)-3-methyl-piperazin-1-yl)-ethanone diydrochloride salt]",0.95,2500,
"COC[C@H]1CN[C@H](C)CN1CC(=O)N1CC(C)(C)c2cnc(-c3cnn(C)c3)cc21 [Example 124, 1-[3,3-Dimethyl-6-(1-methyl-1H-pyrazol-4-yl)-1H,2H,3H-pyrrolo[3,2-c]pyridin-1-yl]-2-[(2R,5R)-2-(methoxymethyl)-5-methylpiperazin-1-yl]ethan-1-one dihydrochloride]",4,,"IC50 [2, 4]: 550 nM"

# Now from value to molecule, other results behind:
IC50 [1] [µM],"IC50 [2, 3] [nM]",Structure (SMILES),other results
1.5,1300,"COC[C@H]1CN[C@H](C)CN1CC(=O)N1CC(C)(c2ccccn2)c2ccc(C#N)cc21 (mixture of isomers) [Example 156, 1-{2-[(2R,5R)-2-(Methoxymethyl)-5-methylpiperazin-1-yl]acetyl}-3-methyl-3-(pyridin-2-yl)-2,3-dihydro-1H-indole-6-carbonitrile hydrochloride [mixture of diastereoisomers]]",
2.6,,"C[C@@H]1CN(CC(=O)N2CCc3ccc(S(=O)(=O)N(C)C)cc32)CCN1 [Example 32, 1-[2-((R)-3-Methyl-piperazin-1-yl)-acetyl]-2,3-dihydro-1H-indole-6-sulfonic acid dimethylamide]","IC50 [2, 5]: 57000 nM"
17,,"C[C@@H]1CN(CC(=O)N2CCc3ccc(OC(F)(F)F)cc32)CCN1 [Example 28, 2-((R)-3-Methyl-piperazin-1-yl)-1-(6-trifluoromethoxy-2,3-dihydro-indol-1-yl)-ethanone hydrochloride salt]","IC50 [2, 5]: 42000 nM"
0.64,330,"C[C@@H]1CN(CC(=O)N2CC(C)(C)c3ccc(Cl)cc32)[C@@H](Cn2cccn2)CN1 [Example 138, 1-(6-Chloro-3,3-dimethyl-2,3-dihydro-1H-indol-1-yl)-2-[(2R,5R)-5-methyl-2-(1H-pyrazol-1-ylmethyl)piperazin-1-yl]ethan-1-one hydrochloride]",
3.1,680,"CC[C@H]1CN[C@H](C)CN1CC(=O)N1CC(C)(C)c2cnc(Cn3cccn3)cc21 [Example 95, 1-[3,3-Dimethyl-6-(1H-pyrazol-1-ylmethyl)-1H,2H,3H-pyrrolo[3,2-c]pyridin-1-yl]-2-[(2S,5R)-2-ethyl-5-methylpiperazin-1-yl]ethan-1-one]",
9.7,9800,"C[C@@H]1CN(CC(=O)N2CC3(CC3)c3ccc(Cl)cc32)CCN1 [Example 53, 1-{6′-Chloro-1′,2′-dihydrospiro[cyclopropane-1,3′-indole]-1′-yl}-2-[(3R)-3-methyl-piperazin-1-yl]ethan-1-one hydrochloride salt]",
1.7,630,"COC[C@H]1CN[C@H](C)CN1CC(=O)N1CC(C)(C)c2nnc(Cl)cc21 [Example 183, 1-{3-Chloro-7,7-dimethyl-5H,6H,7H-pyrrolo[3,2-c]pyridazin-5-yl}-2-[(2R,5R)-2-(methoxymethyl)-5-methylpiperazin-1-yl]ethan-1-one hydrochloride]",IC50 [2]: < 1000 nM
0.79,710,"COC[C@H]1CN[C@H](C)CN1CC(=O)N1CC(C)(C)c2ccc(C#N)cc21 [Example 117, 1-{2-[(2R,5R)-2-(Methoxymethyl)-5-methylpiperazin-1-yl]acetyl}-3,3-dimethyl-2,3-dihydro-1H-indole-6-carbonitrile hydrochloride]",
0.13,170,"C[C@@H]1CN(CC(=O)N2C[C@@](C)(c3ccccc3)c3ccc(C#N)cc32)[C@@H](Cn2cccn2)CN1 [Example 154, (3S)-3-Methyl-1-{2-[(2R,5R)-5-methyl-2-(1H-pyrazol-1-ylmethyl)piperazin-1-yl]acetyl}-3-phenyl-2,3-dihydro-1H-indole-6-carbonitrile]",
110,,"C[C@@H]1CN(CC(=O)N2CCc3ccc(C(=O)N(C)C)cc32)CCN1 [Example 17, 1-[2-((R)-3-Methyl-piperazin-1-yl)-acetyl]-2,3-dihydro-1H-indole-6-carboxylic acid dimethylamide]","inhibition at 160 µM ([2]; 3 h, Probe A, @ 160 μM, read-out: IC50 or PI cIAP1: PI): 44%"
5.5,7900,"C[C@@H]1CN(CC(=O)N2CC(C)(C)c3ccc(C#N)cc32)CCN1 [Example 162, 3,3-Dimethyl-1-{2-[(3R)-3-methylpiperazin-1-yl]acetyl}-2,3-dihydro-1H-indole-6-carbonitrile]",

# — US9018214B2, “Bicyclic heterocycle compounds and their uses in therapy” (Astex Therapeutics Limited, priority 2011, dated 2015)
